Results on eleven compounds are retold here after PubChem BioAssay AID2060487 (Molecular Pharmacology Branch, DTP, NCI, 2025).

In the experiment the test system is 997537-175-T-J1-PDC complex spheroid viability. Briefly: Anticancer human tumor 997537-175-T-J1-PDC patient-derived colon adenocarcinoma cell line growth inhibition [GQUAD]. The settings on record: for viability, T/C: stronger effect = lower value; for IC50: curve of compound. An excerpt: DNA G-quadruplex Stabilizer Agents in Combinations in Complex Spheroids
A high-throughput screen of multi-cell type tumor spheroids was designed to identify active combinations of DNA G-quadruplex stabilizer agents and targeted small molecules. Complex spheroids include a stromal component modeled by human endothelial cells (HUVEC) and fibroblasts modeled by human mesenchymal stem cells (MSCs). The concentration ranges selected for each drug and investigational agent were based upon clinically achievable concentrations if the clinical Cmax of the agent was known.
Compounds. The drugs and investigational agents: pidnarulex (CX-5461; NSC782164), APTO-253 (NSC789042), BRACO-19 (NSC847499), peposertib (NSC802822), ceralasertib (NSC780249), elimusertib (NSC800525), camonsertib (NSC841442), AZD-1390 (NSC803789), olaparib (NSC753686), talazoparib (NSC767125), ART-558 (NSC835418), sotorasib (NSC818433), MRTX-1133 (NSC836407), SN-38 (NSC673596), topotecan (NSC609699), etoposide (NSC141540), doxorubicin (NSC123127), gemcitabine (NSC613327), 5-fluorouracil (NSC19893), paclitaxel (NSC125973), vemurafenib (NSC761431), panobinostat (NSC761190), R-306465 (JNJ-16241199; NSC773264), adavosertib (NSC754352), TP-3654 (NSC805149), carboplatin (NSC241240), KSQ-4279 (NSC840948), and staurosporine (NSC755774) were obtained from the National Cancer Institute (NCI) Developmental Therapeutics Program Chemical Repository (34). The FDA-approved anticancer drug set is available from the NCI Developmental Therapeutics Program. […] The stock solutions were prepared in dimethyl sulfoxide (DMSO, Sigma-Aldrich, St. Louis, MO, cat. D2650) at 800-fold the tested concentration and stored at -70 degrees C prior to their use. All drugs and investigational agents were tested over a range starting from a high concentration at or near the clinical Cmax and decreasing in half-log increments. If the clinical Cmax for an agent had not been determined, the highest concentration tested was 10 microM.
2.3 Cell Culture. All cells were maintained in an incubator at 37 degrees C and 5% CO2 with 95% humidity. The PDC lines were cultured according to standard operating procedures established by the NCI PDMR. All PDCs were thawed and cultured in Matrigel-coated flasks prepared with a working solution of 1X Ham's F-12 nutrient mix, without supplementation (Invitrogen, cat. 11765054), 100 U/mL penicillin-streptomycin (Invitrogen, cat. 15140122), and 2.5% Matrigel (Corning Inc., cat. 354248) for the first three passages. The 857933-349-R-J2-PDC line was cultured in 6C/Colon 1B media, which includes advanced DMEM/F-12 (Thermo Fisher Scientific, cat. 12634028), 10 mM HEPES (Thermo Fisher Scientific, cat. 15630080), 1X GlutaMAX supplement (Thermo Fisher Scientific, cat. 35050061), 0.1 mg/mL primocin (InvivoGen, cat. ant-pm-2), 10% defined fetal bovine serum, heat inactivated (HyClone Laboratories Inc., cat. SH30070.03HI), 50% L-WRN conditioned media (ATCC, cat. CRL-3276), 1.25 mM N-Acetyl-L-cysteine (Sigma-Aldrich, cat. A9165), 10 mM nicotinamide (Sigma-Aldrich, cat. N0636), 1X B-27 supplement (Thermo Fisher Scientific, cat. 17504044), 1X N-2 supplement (Thermo Fisher Scientific, cat. 17502048), 10 microM Y-27632 dihydrochloride (Tocris Bioscience, cat. 1254), and 50 ng/mL human EGF recombinant protein (Thermo Fisher Scientific, cat. PHG0311). The 485176-168-R4-J1-PDC line was cultured in Panc media, which includes all 6C/Colon 1B media components plus 100 ng/mL human FGF-10 (Thermo Fisher Scientific, cat. 100-26), 500 nM SB-431542 (Selleckchem, cat. S1067), and gastrin (Tocris, cat. 3006).
[…]

Usually viability, T/C stands for the ratio of treated to control. The IC50 is the concentration needed to halve the response being measured.

“And” between values parts separate entries of the source, which are not always exact repeats. Identical values can stand only once. Where only a bound is given, the exact number is not on record here.
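Further: spheroids exposed to the agents for 7 days.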

For `C#Cc1c(F)ccc2cc(O)cc(-c3ncc4c(N5CC6CCC(C5)N6)nc(OCC56CCCN5CC(F)C6)nc4c3F)c12` (stereo unspecified), the IC50 is > 10 µM and 1.94 µM. For the same compound, the viability, T/C (compound 0.0316 µM) was 89% and 91.8% and 98.1%. Moreover, the viability, T/C (compound 0.1 µM) is 89.1% and 92.2% and 103%. For the same compound, the viability, T/C (compound 0.316 µM) was 104% and 94.8% and 102%. The viability, T/C (compound 1 µM) was 99.4% and 67.4% and 107%. The viability, T/C (compound 3.16 µM) is 88.9% and 38.7% and 91.8%. For the same compound, the viability, T/C (compound 10 µM) was 106% and 35.1% and 92.4%.
In the case of `C=CC(=O)N1CCN(c2nc(=O)n(-c3c(C)ccnc3C(C)C)c3nc(-c4c(O)cccc4F)c(F)cc23)C(C)C1` (stereo unspecified), the IC50 was above 10 µM. Also, the viability, T/C (compound 0.0316 µM) is 72.9% and 96.6% and 86.9%. In addition, where the note is “compound 0.1 µM”, the viability, T/C is 72.7% and 83.5% and 95.8%. For the same compound, the viability, T/C (compound 0.316 µM) was 86.5% and 87.9% and 93.8%. Moreover, the viability, T/C (compound 1 µM) is 92.2% and 77.4% and 73%. Further, the viability, T/C (compound 3.16 µM) was 95.7% and 79.1% and 71.7%. In addition, the viability, T/C (compound 10 µM) was 94.6% and 94.1% and 90%.
Regarding `C=CCn1c(=O)c2cnc(Nc3ccc(N4CCN(C)CC4)cc3)nc2n1-c1cccc(C(C)(C)O)n1`, the IC50 is 5.75 µM and 2.73 µM and 3.53 µM. Also, the viability, T/C (compound 0.0316 µM) was 95.7% and 89.4% and 112%. Further, the viability, T/C (compound 0.1 µM) was 75.6% and 101% and 92.2%. For the same compound, the viability, T/C (compound 0.316 µM) was 81.8% and 88.3% and 92.2%. Where the note is “compound 1 µM”, the viability, T/C was 80.2% and 84.5% and 79.4%. For the same compound, where the note is “compound 3.16 µM”, the viability, T/C was 73.2% and 44.9% and 49.3%. In addition, under “compound 10 µM”, the viability, T/C is 28.9% and 30.8% and 24.2%.
On to `CC(=O)O[C@H]1C(=O)[C@@]2(C)[C@H]([C@H](OC(=O)c3ccccc3)[C@]3(O)C[C@H](OC(=O)[C@H](O)[C@@H](NC(=O)c4ccccc4)c4ccccc4)C(C)=C1C3(C)C)[C@]1(OC(C)=O)CO[C@@H]1C[C@@H]2O`, for which the viability, T/C reads like this: (compound 0.0316 µM) 104% and 77.3% and 50.1%; (compound 0.1 µM) 92.5% and 40.4% and 45.4%; (compound 0.316 µM) 91.8% and 22.7% and 36.3%; (compound 1 µM) 74.7% and 34.4% and 39.1%; (compound 3.16 µM) 53.2% and 23.9% and 28.3%; (compound 10 µM) 0.36% and 20.5% and 22%.
For `CC(C)(O)C1CCC(Nc2ccc3ncc(-c4cccc(C(F)(F)F)c4)n3n2)CC1` (stereo unspecified), the IC50 was > 10 µM and 1.46 µM and 2.03 µM. The viability, T/C (compound 0.0316 µM) is 106% and 96.5% and 115%. For the same compound, the viability, T/C (compound 0.1 µM) was 111% and 78.3% and 65.2%. For the same compound, the viability, T/C (compound 0.316 µM) was 114% and 96.7% and 109%. Also, the viability, T/C (compound 1 µM) is 101% and 61.5% and 68.3%. Besides, the viability, T/C (compound 3.16 µM) is 98.6% and 24.1% and 40.3%. Under “compound 10 µM”, the viability, T/C is 96.8% and 28.7% and 36.9%.
In the case of `CC(C)n1c(=O)n(C)c2cnc3cc(F)c(-c4ccc(OCCCN5CCCCC5)nc4)cc3c21`, the IC50 was above 10 µM. Further, for the setting “compound 0.0316 µM”, the viability, T/C was 97.6% and 103% and 97%. For the same compound, the viability, T/C (compound 0.1 µM) is 90.3% and 99.9% and 82.4%. Further, the viability, T/C (compound 0.316 µM) was 110% and 106% and 99.8%. For the same compound, the viability, T/C (compound 1 µM) is 107% and 99.2% and 103%. In addition, the viability, T/C (compound 3.16 µM) is 83.5% and 78.7% and 101%. Further, the viability, T/C (compound 10 µM) was 83.4% and 93.4% and 92%.
For the compound `CC1COCCN1c1cc(-c2ccnn2C)c2ccnc(-c3ccn[nH]3)c2n1` (stereo unspecified), the IC50 is 1.75 µM and 0.846 µM and 0.219 µM. Also, the viability, T/C (compound 0.0316 µM) is 80.4% and 95.8% and 90.8%. For the same compound, where the note is “compound 0.1 µM”, the viability, T/C is 67.5% and 75.7% and 62.5%. Also, under “compound 0.316 µM”, the viability, T/C was 46% and 65.2% and 33.9%. The viability, T/C (compound 1 µM) was 61% and 40% and 50%. For the same compound, under “compound 3.16 µM”, the viability, T/C is 58% and 48.9% and 43.1%. For the setting “compound 10 µM”, the viability, T/C is 36.4% and 43.5% and 49.4%.
`CC1COCCN1c1cc(C2(O)CC3CCC(C2)O3)c2cnn(-c3ccn[nH]3)c2n1` (stereo unspecified): the IC50 is 0.345 µM and 0.701 µM and 0.282 µM. Besides, the viability, T/C (compound 0.0316 µM) is 86.8% and 86.6% and 96.4%. In addition, the viability, T/C (compound 0.1 µM) is 57.4% and 66.7% (2×). In addition, the viability, T/C (compound 0.316 µM) is 50.3% and 53.8% and 37.7%. For the same compound, the viability, T/C (compound 1 µM) was 51.1% and 54.5% and 70.1%. The viability, T/C (compound 3.16 µM) was 49.2% and 35.5% and 36.5%. Moreover, the viability, T/C (compound 10 µM) was 44.9% and 33.9% and 48.4%.
As for `CC1COCCN1c1cc(C2(S(C)(=N)=O)CC2)nc(-c2ccnc3[nH]ccc23)n1` (stereo unspecified), the IC50 is 7.16 µM and 7.09 µM and 5.6 µM. Moreover, where the note is “compound 0.0316 µM”, the viability, T/C is 98.9% and 93.7% and 101%. Also, the viability, T/C (compound 0.1 µM) was 81.9% and 86.5% and 95.8%. Moreover, the viability, T/C (compound 0.316 µM) was 83.6% and 94.9% and 77%. Besides, where the note is “compound 1 µM”, the viability, T/C is 83.5% and 68.5% and 90.1%. Besides, the viability, T/C (compound 3.16 µM) is 56.5% and 65.7% and 59.5%. Besides, for the setting “compound 10 µM”, the viability, T/C is 46.4% and 44.1% and 36.8%.
As to `CCCS(=O)(=O)Nc1ccc(F)c(C(=O)c2c[nH]c3ncc(-c4ccc(Cl)cc4)cc23)c1F`, the IC50 was 2.81 µM and 3.15 µM and 1.79 µM. Under “compound 0.0316 µM”, the viability, T/C was 98.4% and 98.6% and 86.2%. The viability, T/C (compound 0.1 µM) was 99.3% and 95.1% and 77.8%. The viability, T/C (compound 0.316 µM) is 97.4% and 68.8% and 65.1%. In addition, the viability, T/C (compound 1 µM) is 89.6% and 71.8% and 53%. Also, where the note is “compound 3.16 µM”, the viability, T/C is 45.4% and 56.1% and 52.3%. Further, the viability, T/C (compound 10 µM) was 34.9% and 24.1% and 25%.
For the compound `CC[C@@]1(O)C(=O)OCc2c1cc1n(c2=O)Cc2cc3c(CN(C)C)c(O)ccc3nc2-1`, the IC50 was 0.276 µM and > 0.316 µM. The viability, T/C (compound 0.000999 µM) was 111% (2×) and 97.1%. In addition, the viability, T/C (compound 0.00316 µM) was 69.8% and 102% and 104%. The viability, T/C (compound 0.00999 µM) was 90.1% and 96.7% and 105%. Under “compound 0.0316 µM”, the viability, T/C was 80.1% and 87.1% and 83.8%. For the same compound, the viability, T/C (compound 0.0999 µM) is 71.2% and 79.7% and 72.6%. For the setting “compound 0.316 µM”, the viability, T/C is 44.4% and 62.8% and 50.7%.
